Source: patent US11666642B2, “PDE5 compositions and methods for immunotherapy” (Obsidian Therapeutics, Inc., priority 2017, dated 2023)
pEC50: −log10 of the molar value.

Legend:
HEK 293 cells = test: CAR surface expression by Protein L staining, dose and time dependence; assay type: cell-based; conditions: OT-CD19-053 in HEK 293 cells, 24 hours of ligand
Experimental: The dose dependent regulation of OT-CD19-052 and OT-CD19-053 was measured in HEK 293 cells transfected with 2 ug DNA and stably selected using 2 ug/ml puromycin.
Cells were also treated with ligand for varying durations of time with ligand concentrations shown in Table 45C and Protein L expression was measured using FACS.

NIH 3T3 cells = test: Western blot analysis using a GFP antibody, hPDE5 C terminal mutants; conditions: hPDE5 mutant construct, 24 hours and 48 hours, vs untreated cells
Source text: All comparisons were made against cells that were not treated with either ligand.

HEK293T cells = test: Effect of linker on DD regulation of IL15-IL15Ra, FACS using the HA antibody; assay type: cell-based; conditions: for Stabilization ratio: 1 μM Vardenafil vs DMSO control; for % HA positive cells, Vardenafil: 1 μM Vardenafil, 24 hours; for % HA positive cells, Control: DMSO control
Experimental: The effect of the type of linker used and the length of the linker on the regulation of the expression of the payload was tested. IL15-IL15Ra fusion constructs were linked to the hPDE5 (R732L) DD using GSGSGS (SEQ ID NO. 8330) as the linker (as in OT-IL15-111), or […] (SEQ ID NO. 8331) as the linker (as in OT-IL15-112) or using […] (SEQ ID NO. 8332) as the linker (as in OT-IL15-113). The IL15 portion of the construct was tagged with a Flag tag while the IL15Ra portion was tagged with a HA tag. These tags allow both the components of the construct to be tracked individually in experiments. […] The properties of the DDs regulated IL15-IL15Ra payloads were analyzed in the presence and absence of ligands via FACS using the HA antibody as previously described.

Compound | Stabilization ratio (HEK293T cells) | % HA positive cells, Vardenafil (HEK293T cells) [%] | % HA positive cells, Control (HEK293T cells) [%] | further results
CCCc1nn(C)c2c(=O)[nH]c(-c3cc(S(=O)(=O)N4CCN(C)CC4)ccc3OCC)nc12 [Sildenafil] |  |  |  | pEC50 (HEK 293 cells): 5.82; GFP protein levels by western blot (NIH 3T3 cells; 0.1 μM ligand): modest stabilization of GFP protein levels; GFP protein levels by western blot (NIH 3T3 cells; 1 μM ligand): stabilization of GFP increased
CCCc1nc(C)c2c(=O)[nH]c(-c3cc(S(=O)(=O)N4CCN(CC)CC4)ccc3OCC)nn12 [Vardenafil] |  |  |  | pEC50 (HEK 293 cells; Homo sapiens, HEK293): 7.60
OT-IL15-111: IL15-IL15Ra fusion linked to hPDE5 (R732L) DD using GSGSGS linker | 1.69 | 63.2 | 37.5 | 
OT-IL15-112: IL15-IL15Ra fusion linked to hPDE5 (R732L) DD using GSGSGSGS linker |  | 74.6 | 41.6 | 
OT-IL15-113: IL15-IL15Ra fusion linked to hPDE5 (R732L) DD using GSGSGGGSGS linker | 1.65 | 69.1 | 42 | 
